What was measured:
[1] = test system: LLC (cisplatin-sensitive cell tumours); test: Tumor growth in syngeneic mouse model, LLC allografts; assay type: in vivo; details: epacadostat 200 mg/kg P.O. daily
Procedure: (§1) LLC or LLC-CR (1×10^6) cells were subcutaneously injected into the flank of C57B6/J male and female mice (5 mice per group, age 6-8 weeks, Jackson laboratory) and allowed to grow for 3 days (average tumor size=50 mm^3) before being treated with the selective IDO1 inhibitor epacadostat at 200 mg/kg daily or with AT-0174 at 170 mg/kg daily (a dual inhibitor of IDO1 and TDO enzymes). Both compounds were administered via oral gavage (P.O.) and diluted with 95% water+5% methylcellulose (0.5%) and stored at −20° C. Compound was prepared every 5 days. Methyl cellulose (95+5%) was used as control (“Veh”). Tumor growth was evaluated every 2 days by measuring tumor volume with calipers according to the following formula: tumor volume=width^2×length×0.5. At the end of the study, mice were sacrificed and the blood, tumor, and lymph nodes were collected and processed for KYN and tryptophan (TRP) measurement and immune cell assessment respectively.
In this example, LLC-CR from the Lewis lung mouse cell line (LLC; see methods) was used to determine, in vivo, the effect of IDO1 or dual IDO1/TDO inhibition on tumor growth. Mice were inoculated with either LLC or LLC-CR and treated with epacadostat (200 mg/kg P.O. 1/day) or AT-0174 (170 mg/kg P.O. 1/day).

[2] = test system: immune cells in LLC tumors; test: Flow cytometry immune cell analysis, LLC tumors; assay type: in vivo, mouse; details: AT-0174 170 mg/kg, epacadostat 200 mg/kg P.O. daily
Procedure: as §1
(§2) Tumors or lymph nodes were collected from mice and homogenized using syringe plungers. Mesh filters (40 μM) were placed on 15 mL or 50 mL tubes and the tissue suspensions were filtered. Cell filtrates were spun down at 1000 g. Red blood cell lysis buffer (1% […]) was added into the cell pellets and resuspended. Cell pellets were washed using PBS and isolated. Tumors were isolated using EasySep™ Mouse TIL (CD45) Positive Selection Kit (Stemcell Technologies). To detect regulatory T cells (T-regs) or natural killer cells (NKs), EasySep™ Mouse CD25 Regulatory T Cell Positive Selection Kit and EasySep™ Mouse CD49b Positive Selection Kit were used, respectively. Isolated cells were stained according to manufacturer's instructions. Cells were also fixed with 2% paraformaldehyde and analysis was done using the CytoFLEX Flow Cytometer (Beckman). All flow antibodies were obtained from Biolegend.

[3] = test system: immune cells in LLC-CR tumors; test: Flow cytometry immune cell analysis, LLC-CR tumors; assay type: in vivo, mouse; details: AT-0174 170 mg/kg, epacadostat 200 mg/kg P.O. daily
Procedure: as §1, §2

[4] = test system: kynurenine (KYN) and tryptophan (TRP) levels in mouse serum; test: KYN and TRP measurements, LLC-bearing mice; assay type: in vivo; details: AT-0174 170 mg/kg, epacadostat 200 mg/kg P.O. daily
Procedure: as §1
Blood samples were collected via cardiac puncture from mice at the time of sacrifice and the Biochrom 30 amino acid analyzer (using ion exchange chromatography) was used to analyze free amino acids in samples. Briefly, 200 μL of serum extract and equal volume of 30% v/v deproteinization agent (sulfosalicylic acid) were mixed and vortexed for 10 s. Samples were then incubated at 55° C. for 20 min, spin down at 2500 g for 20 min at 4° C. Supernatant were collected, filtered through a 0.22 μm filter, and injected into the Biochrom 30. Values were reported compared to normal ranges in controls. Samples used in ion exchange chromatography are separated in an analytical fashion with an ion exchange column and buffers of increasing pH and ionic strength. After post-column derivatization with Ninhydrin, and colorimetric intensity recordings at 570 nm and 440 nm, the amino acids separated by chromatography were detected. Amino acid concentration was calculated by comparing the peak area of a particular amino acid to the peak area of an internal standard-AEC of known concentration, and then multiplying by its specific response factor from calibration.

[5] = test system: cisplatin-resistant LLC tumors; test: Survival of mice with cisplatin-resistant LLC tumors; assay type: in vivo, mouse; details: for First Death / Maximal Survival / Median Survival Time: LLC-CR, C57B6/J mice, epacadostat 200 mg/kg, AT-0174 170 mg/kg P.O., anti-PD-1 10 mg/kg i.p. every 3 days
Procedure: To investigate the synergy of immune response on tumors between the dual IDO1/TDO inhibitor AT-0174 and an immune checkpoint inhibitor, the compound was tested in mice with cisplatin-resistant lung cancer tumors with and without with anti-PD1 antibody co-treatment.
LLC-CR (1×10^6) cells were subcutaneously injected into the flank of C57B6/J mice (6 mice per group, age 8 weeks) and allowed to grow for 3 days (average tumor size=50 mm^3) before being treated with IDO1 inhibitor epacadostat at 200 mg/kg daily (a supra-maximal dose) or with AT-0174 at 170 mg/kg. Both compounds were administered via oral gavage (P.O.) in 95% water+5% methylcellulose (0.5%). Anti-mouse PD-1 MAb clone RMPi-14 was used as checkpoint inhibitor and administered via intraperitoneal injection (i.p.) at a dose of 10 mg/kg every 3 days.

Compound	tumor volume, Mean ([1]; day 1, AT-0174 170 mg/kg)	tumor volume, Mean ([1]; day 2, AT-0174 170 mg/kg)	tumor volume, Mean ([1]; day 3, AT-0174 170 mg/kg)	tumor volume, Mean ([1]; day 4, AT-0174 170 mg/kg)	tumor volume, Mean ([1]; day 5, AT-0174 170 mg/kg)	tumor volume, Mean ([1]; day 6, AT-0174 170 mg/kg)	tumor volume, Mean ([1]; day 7, AT-0174 170 mg/kg)	tumor volume, Mean ([1]; day 8, AT-0174 170 mg/kg)	tumor volume, Mean ([1]; day 9, AT-0174 170 mg/kg)	tumor volume, Mean ([1]; day 10, AT-0174 170 mg/kg)	tumor volume, Mean ([1]; day 11, AT-0174 170 mg/kg)	tumor volume, Mean ([1]; day 12, AT-0174 170 mg/kg)	tumor volume, Mean ([1]; day 13, AT-0174 170 mg/kg)	tumor volume, Mean ([1]; day 14, AT-0174 170 mg/kg)	tumor volume, Mean ([1]; day 15, AT-0174 170 mg/kg)	CD3^+ CD8^+ T-Effector [2]	CD3^+ CD49^+ NKG2D^+ NK Cells [2]	CD4^+ CD25^+ FoxP3^+ T-regs [2]	CD3^+ CD8^+ T-Effector [3]	CD3^+ CD49^+ NKG2D^+ NK Cells [3]	also measured
Nc1noc2nc(Cl)c(F)cc12 [Compound 66, 6-Chloro-5-fluoroisoxazolo[5,4-b]pyridin-3-amine]	58.0 mm^3	79.0 mm^3	110.0 mm^3	125.0 mm^3	115.2 mm^3	124.0 mm^3	135.0 mm^3	140.6 mm^3	171.0 mm^3	230.0 mm^3	340.0 mm^3	430.0 mm^3	571.8 mm^3	645.0 mm^3	675.0 mm^3	5.38 ± 0.79	3.58 ± 0.70	10.05 ± 0.79	8.13 ± 0.94	7.44 ± 0.62	CD4^+ CD25^+ FoxP3^+ T-regs [3]: 5.75 ± 1.53; KYN/TRP Ratio [4]: 1.11 ± 0.17; Kynurenine [4]: 64.2 ± 9.3; Tyrptophan [4]: 59.2 ± 4.4; effect on survival ([5]; LLC-CR mice, given alone): increased survival to a greater extent than the selective agent; First Death [5]: 36 days; Maximal Survival [5]: 43 days; Median Survival Time [5]: 36 days
NS(=O)(=O)NCCNc1nonc1C(=NO)Nc1ccc(F)c(Br)c1 [Epacadostat, epacadostat, reference compound]	47.0 mm^3	108.0 mm^3	110.0 mm^3	124.0 mm^3	137.0 mm^3	151.0 mm^3	208.0 mm^3	290.0 mm^3	325.0 mm^3	409.0 mm^3	563.0 mm^3	625.0 mm^3	725.0 mm^3	785.0 mm^3	910.0 mm^3	5.16 ± 0.65	2.66 ± 0.57	13.27 ± 0.83	4.06 ± 0.63	2.38 ± 0.42	CD4^+ CD25^+ FoxP3^+ T-regs [3]: 12.60 ± 0.94; KYN/TRP Ratio [4]: 1.35 ± 0.23; Kynurenine [4]: 74.6 ± 7.7; Tyrptophan [4]: 58.6 ± 5.6; First Death [5]: 24 days; Maximal Survival [5]: 35 days; Median Survival Time [5]: 25 days
